In this assay the test system is Escherichia coli ATCC 10536. Briefly: Robotic bacteria contact time (BCT) test of perfume ingredients in surfactant bases (EN-1276 based). As to conditions: contact time 45 seconds; for log reduction at 1 % / log reduction at 0.5 %: Escherichia coli, ATCC10536, 45 s; for log reduction at 1 % / Log reduction: surfactant base B, perfume ingredient 1% wt; for log reduction at 0.5 %: surfactant base A, perfume ingredient 0.5 % wt. It is filed as cell-based. On the procedure:
a. Preparation of Test Samples
Test samples were prepared by mixing perfume ingredients with the surfactant bases and vigorously stirred for 24 hrs. Samples with transparent appearance were selected for antimicrobial testing.
b. Measurement of Antimicrobial Efficacy of Fragrance Materials in Surfactant Systems
Preparation of screening plate and dilution plate: Aliquots (270 μl) of compositions were dispensed into the wells of a 96-well microtiter plate (MTP) along two columns (B1-H1, and B7-H7), and 270 μl of MilliQ water was added to well A1 and A7 as the control samples. This MTP was labelled as the “Screening plate”. In another MTP, labelled as the “Dilution plate”, 270 μL of Dey-Engley (D/E) neutralizing solution was added to column 1 and column 7. 270 μl of tryptone diluent solution was added to columns 2-6 and columns 8-12 of the Dilution MTP by a Hamilton robotic liquid handling station.
BCT test & neutralization & dilution: Bacterial stock (30 μl) was then added to columns 1 of the ‘Screening plate’ and mixed by a Hamilton robotic liquid handling station. After a contact time of 45 seconds, 30 μl of the mixtures in column 1 were transferred into the corresponding wells of column 1 of the ‘Dilution plate’. After neutralizing for 5 minutes in the D/E neutralizing solution, 30 μl of the neutralized mixtures were transferred from column 1 to column 2 of the Dilution MTP and mixed, followed by transferring 30μl of the mixtures from column 2 into column 3. This process was repeated serially diluting the bacteria suspensions across the plate to column 6. Bacterial stock (30 μl) was then added to columns 7 of the ‘Screening plate’ and mixed by a Hamilton robotic liquid handling station. After a contact time of 45 seconds, 30 μl of the mixtures in column 7 were transferred into the corresponding wells of column 7 of the ‘Dilution plate’. After neutralizing for 5 minutes in the D/E neutralizing solution, 30 μl of the mixtures were transferred from column 7 to column 8 of the Dilution MTP and mixed, followed by transferring further 30μl mixtures from column 8 into column 9. This process was repeated serially diluting the bacteria suspensions across the plate to column 12.
Plating: 30 μl volumes from each well in the Dilution MTP were transferred onto four Tryptone Soya Agar (TSA) plates. The TSA plates were allowed to stand for about two hours so that the 30 μl inocula spots could dry and the plates were then inverted and incubated overnight at 37° C. for 24 hours. After incubation, colonies were counted.
Calculating log reduction: Select the dilutions with colony counts, and calculate the viable cell counts (CFU/mL) of mixture in ‘Screening plate’, and log reduction against the control MilliQ sample was calculated.

The mark [1] stands for this setting: no SCS (/), read-out: Log reduction.
Where [2] appears, read: sodium cumene sulfonate (SCS) 3.00 % wt, read-out: Log reduction.
Setting [3] is: sodium salicylate 3.00, read-out: Log reduction.
[4] abbreviates: sodium cumene sulfonate (SCS) 3.00 % wt.

This is an account of results in US20250134790A1, “ANTIMICROBIAL COMPOSITIONS” (Firmenich SA, priority 2021, published 2025).

Like-named read-outs stand apart in the source and are kept apart here.

As to `CC(=O)OCCC1CCCCC1` [2-cyclohexylethyl acetate], the log reduction at 1 % is 0 under setting [1], above 5 under setting [2] and above 5 under setting [3].
As to `CC(=CC=O)CCC(C)=C(C)C` [3,6,7-trimethyl-2,6-octadienal], the log reduction at 1 % is, setting by setting: under setting [1], 3.3; under setting [2], above 5. Further, for the setting “sodium salicylate 3.00”, the Log reduction entry is recorded as “Insoluble”.
With `C=CC(C)(O)CCCC(C)C` (centres unmarked) [3,7-dimethyl-1-octen-3-ol], the log reduction at 1 % was -0.1 under setting [1], above 5 under setting [2] and above 5 under setting [3].
`CC(C)=CCCC(C)CCO` (centres unmarked) [3,7-dimethyl-6-octen-1-ol]: under “read-out: Log reduction”, the log reduction at 0.5 % came out at 2.8. Further, the Log reduction entry (no SCS (/)) is “Insoluble”, the Log reduction entry under setting [4] is recorded as “Insoluble” and the Log reduction entry (sodium salicylate 3.00) was “Insoluble”.
On to `CC(C)=CCCC(C)CC#N` (centres unmarked) [3,7-dimethyl-6-octenenitrile], for which the log reduction at 1 % is, setting by setting: under setting [1], 0.1; under setting [2], above 5; under setting [3], above 5.
As for `CCCC=C1OC(=O)c2ccccc21` [3-butylidene-1-benzo[C] furanone], the log reduction at 1 % was 0.2 (no SCS (/)) and above 5 under setting [4]. Further, where the note is “sodium salicylate 3.00”, the Log reduction entry is “Insoluble”.
In the case of `CCCCCCCC1CCC(=O)O1` (centres unmarked) [5-heptyldihydro-2(3H)-furanone], the log reduction at 0.5 % was found to be 1.3. Besides, the log reduction at 1 % (no SCS (/)) is -0.2. Under setting [4], this compound came in with a log reduction at 1 % of 4.9. The log reduction at 1 % (sodium salicylate 3.00) was above 5.
Turning to `C/C=C\C(C)(O)CCC=C(C)C` (centres unmarked) [(2Z)-4,8-dimethyl-2,7-nonadien-4-ol], the log reduction at 1 % under setting [1] is -0.1, the log reduction at 1 % under setting [2] is above 5 and the log reduction at 1 % under setting [3] is above 5.
For the compound `CCCCCCCC=O` [Octanal, octanal], the Log reduction entry runs as follows: (no SCS (/)) “Insoluble”; under setting [4], “Insoluble”; (sodium salicylate 3.00) “Insoluble”.
As for “cyclopropylmethyl (3Z)-3-hexenoate OR cyclopropylmethyl (3E)-3-hexenoate”, the Log reduction (no SCS (/)) is 0.1, the Log reduction under setting [4] was above 5 and the Log reduction (sodium salicylate 3.00) is recorded as above 5.
